Calls of active or inactive are those of the source. No cut-off for these calls is given here.
Tests used:
[1] = system: Pseudomonas aeruginosa; assay: Synergistic antibacterial activity against Pseudomonas aeruginosa PAO1 infected in Caenorhabditis elegans assessed as worm survival rate at 2.5 ug/ml incubated for 72 hrs in presence of compound 16e by bright-field microscopy relative to control; assay type: functional
[2] = system: Pseudomonas aeruginosa; assay: Antibacterial activity against Pseudomonas aeruginosa PAO1 infected in Caenorhabditis elegans assessed as worm survival rate at 2.5 ug/ml incubated for 60 hrs by bright-field microscopy relative to control; assay type: functional
[3] = Toxicity in Caenorhabditis elegans assessed as effect on survival at 100 uM incubated for 60 hrs by bright-field microscopy
[4] = system: Pseudomonas aeruginosa; assay: Antivirulence activity against Pseudomonas aeruginosa PA14 assessed as reduction of pyocyanin production at 10 uM incubated for 24 hrs by optical density based analysis relative to control; assay type: functional; set-up: scale not given: the % may be the effect or the level left
[5] = system: Pseudomonas aeruginosa; assay: Antibacterial activity against Pseudomonas aeruginosa PAO1 assessed as inhibition of biofilm formation at 50 uM incubated for 24 hrs by crystal violet staining analysis relative to control; assay type: functional; set-up: scale not given: the % may be the effect or the level left
[6] = Inhibition of quorum sensing system in Pseudomonas aeruginosa PAO1 assessed as inhibition of elastase production at 10 uM incubated for 24 hrs by elastin-congo red dye based optical density based analysis relative to control
[7] = system: Pseudomonas aeruginosa; assay: Synergistic antibacterial activity against Pseudomonas aeruginosa PAO1 assessed as reduction in bacterial viability at 10 uM incubated for 24 hrs in presence of tobramycin at 1/2 to 1/8 times of MIC; assay type: functional, organism-based
[8] = system: Pseudomonas aeruginosa; assay: Antibacterial activity against Pseudomonas aeruginosa PAO1 assessed as inhibition of biofilm formation incubated for 24 hrs by crystal violet staining analysis; assay type: functional, organism-based
[9] = system: Pseudomonas aeruginosa; assay: Antibacterial activity against Pseudomonas aeruginosa PAO1 infected in Caenorhabditis elegans assessed as worm survival rate at 0.125 ug/ml incubated for 72 hrs by bright-field microscopy relative to control; assay type: functional
[10] = system: Pseudomonas aeruginosa; assay: Synergistic antibacterial activity against Pseudomonas aeruginosa PAO1 infected in Caenorhabditis elegans assessed as worm survival rate at 50 uM incubated for 72 hrs in presence of tobramycin by bright-field microscopy relative to control; assay type: functional
[11] = system: Pseudomonas aeruginosa; assay: Inhibition of iron homeostasis in Pseudomonas aeruginosa PAO1 assessed as decrease in pyoverdine production at 5 to 20 uM incubated for 24 hrs by fluorescence based microplate reader analysis; assay type: functional, organism-based; conditions: dose 5-20 µM
[12] = system: Pseudomonas aeruginosa; assay: Anti-motility activity against Pseudomonas aeruginosa PAO1 assessed as reduction in swarming incubated for 16 hrs by crystal violet staining analysis; assay type: functional, organism-based
[13] = system: Pseudomonas aeruginosa; assay: Synergistic antibacterial activity against Pseudomonas aeruginosa clinical isolate 1121 assessed as reduction in bacterial viability at 10 uM incubated for 24 hrs in presence of ciprofloxacin at 1/2 to 1/8 times of MIC; assay type: functional, organism-based
[14] = Inhibition of quorum sensing system in Pseudomonas aeruginosa PAO1 assessed as inhibition of pyocyanin production at 0.625 uM incubated for 24 hrs by optical density based analysis relative to control
[15] = system: Pseudomonas aeruginosa; assay: Synergistic antibacterial activity against Pseudomonas aeruginosa clinical isolate 1129 assessed as reduction in bacterial viability at 10 uM incubated for 24 hrs in presence of ciprofloxacin at 1/2 to 1/8 times of MIC; assay type: functional, organism-based
[16] = Inhibition of quorum sensing system in Pseudomonas aeruginosa PAO1 assessed as inhibition of pyocyanin production at 10 uM incubated for 24 hrs by optical density based analysis relative to control
[17] = Metal chelating activity assessed as compound-Fe3+ complex formation by measuring fluorescence signal by fluorescence spectrophotometry
[18] = system: Pseudomonas aeruginosa; assay: Synergistic antibacterial activity against Pseudomonas aeruginosa clinical isolate FB assessed as reduction in bacterial viability at 10 uM incubated for 24 hrs in presence of ciprofloxacin at 1/2 to 1/8 times of MIC; assay type: functional, organism-based
[19] = system: Pseudomonas aeruginosa; assay: Antivirulence activity against Pseudomonas aeruginosa clinical isolate 1121 assessed as reduction of pyocyanin production at 10 uM incubated for 24 hrs by optical density based analysis relative to control; assay type: functional; set-up: scale not given: the % may be the effect or the level left
[20] = system: Pseudomonas aeruginosa; assay: Synergistic antibacterial activity against Pseudomonas aeruginosa clinical isolate 1167 assessed as reduction in bacterial viability at 10 uM incubated for 24 hrs in presence of ciprofloxacin at 1/2 to 1/8 times of MIC; assay type: functional, organism-based
[21] = system: Pseudomonas aeruginosa; assay: Synergistic antibacterial activity against Pseudomonas aeruginosa clinical isolate 1121 assessed as reduction in bacterial viability at 10 uM incubated for 24 hrs in presence of tobramycin at 1/2 to 1/8 times of MIC; assay type: functional, organism-based
[22] = Inhibition of quorum sensing system in Pseudomonas aeruginosa PAO1 transfected with pqsA-gfp reporter assessed as decrease in GFP fluorescence expression incubated for 16 hrs by microplate reader assay
[23] = system: Pseudomonas aeruginosa; assay: Synergistic antibacterial activity against Pseudomonas aeruginosa clinical isolate 1129 assessed as reduction in bacterial viability at 10 uM incubated for 24 hrs in presence of tobramycin at 1/2 to 1/8 times of MIC; assay type: functional, organism-based
[24] = system: Pseudomonas aeruginosa; assay: Synergistic antibacterial activity against Pseudomonas aeruginosa PAO1 infected in Caenorhabditis elegans assessed as worm survival rate at 10 uM incubated for 72 hrs in presence of ciprofloxacin by bright-field microscopy relative to control; assay type: functional
[25] = Inhibition of quorum sensing system in Pseudomonas aeruginosa PAO1 transfected with GFP reporter assessed as decrease in GFP fluorescence expression at 1.25 to 10 uM incubated for 16 hrs by microplate reader assay; conditions: dose 1.25-10 µM
[26] = system: Pseudomonas aeruginosa; assay: Antivirulence activity against Pseudomonas aeruginosa clinical isolate FB assessed as reduction of pyocyanin production at 10 uM incubated for 24 hrs by optical density based analysis relative to control; assay type: functional; set-up: scale not given: the % may be the effect or the level left
[27] = system: Pseudomonas aeruginosa; assay: Synergistic antibacterial activity against Pseudomonas aeruginosa clinical isolate 1167 assessed as reduction in bacterial viability at 10 uM incubated for 24 hrs in presence of tobramycin at 1/2 to 1/8 times of MIC; assay type: functional, organism-based
[28] = system: Pseudomonas aeruginosa; assay: Synergistic antibacterial activity against Pseudomonas aeruginosa PAO1 infected in Caenorhabditis elegans assessed as worm survival rate at 10 uM incubated for 72 hrs in presence of tobramycin by bright-field microscopy relative to control; assay type: functional
[29] = system: Pseudomonas aeruginosa; assay: Synergistic antibacterial activity against Pseudomonas aeruginosa PAO1 assessed as reduction in bacterial viability at 10 uM incubated for 24 hrs in presence of ciprofloxacin at 1/2 to 1/8 times of MIC; assay type: functional, organism-based
[30] = system: Vero; assay: Cytotoxicity against African green monkey Vero cells at 100 uM incubated for 24 hrs by MTT assay; assay type: toxicity, cell-based; conditions: chlorocebus sabaeus
[31] = Inhibition of quorum sensing system in Pseudomonas aeruginosa PAO1 assessed as inhibition of rhamnolipid production at 0.625 to 20 uM incubated for 24 hrs by optical density based analysis; conditions: dose 0.625-20 µM
[32] = system: Pseudomonas aeruginosa; assay: Antibacterial activity against Pseudomonas aeruginosa PAO1 infected in Caenorhabditis elegans assessed as increase in worm survival by measuring survival time at 50 uM by bright-field microscopy; assay type: functional
[33] = system: Pseudomonas aeruginosa; assay: Anti-motility activity against Pseudomonas aeruginosa PAO1 assessed as reduction in twitching incubated for 16 hrs by crystal violet staining analysis; assay type: functional, organism-based
[34] = system: Pseudomonas aeruginosa; assay: Inhibition of iron homeostasis in Pseudomonas aeruginosa PAO1 assessed as decrease in pyochelin production at 1.25 to 20 uM incubated for 24 hrs by fluorescence based microplate reader analysis; assay type: functional, organism-based; conditions: dose 1.25-20 µM
[35] = Inhibition of quorum sensing system in Pseudomonas aeruginosa PAO1 assessed as inhibition of pyocyanin production incubated for 24 hrs by optical density based analysis
[36] = Binding affinity to recombinant PqsR LBD (94 to 332 residues) (unknown origin) expressed in Escherichia coli BL21 (DE3) assessed as dissociation constant by isothermal titration calorimetry
[37] = system: Pseudomonas aeruginosa; assay: Synergistic antibacterial activity against Pseudomonas aeruginosa PAO1 infected in Caenorhabditis elegans assessed as worm survival rate at 50 uM incubated for 72 hrs in presence of ciprofloxacin by bright-field microscopy relative to control; assay type: functional
[38] = system: Pseudomonas aeruginosa; assay: Synergistic antibacterial activity against Pseudomonas aeruginosa clinical isolate FB assessed as reduction in bacterial viability at 10 uM incubated for 24 hrs in presence of tobramycin at 1/2 to 1/8 times of MIC; assay type: functional, organism-based
[39] = system: Pseudomonas aeruginosa; assay: Antibacterial activity against Pseudomonas aeruginosa PAO1 infected in Caenorhabditis elegans assessed as increase in worm survival by measuring survival time at 10 uM by bright-field microscopy; assay type: functional
[40] = system: Vero; assay: Cytotoxicity against African green monkey Vero cells at 1.56 to 50 uM incubated for 24 hrs by MTT assay; assay type: toxicity, cell-based; conditions: chlorocebus sabaeus, dose 1.56-50 µM
[41] = system: Pseudomonas aeruginosa; assay: Anti-motility activity against Pseudomonas aeruginosa PAO1 assessed as reduction in swimming incubated for 16 hrs by crystal violet staining analysis; assay type: functional, organism-based
[42] = Inhibition of quorum sensing system in Pseudomonas aeruginosa PAO1 transfected with rhlA-gfp reporter assessed as decrease in GFP fluorescence expression at 0.625 to 10 uM incubated for 16 hrs by microplate reader assay; conditions: dose 0.625-10 µM
[43] = Inhibition of quorum sensing system in Pseudomonas aeruginosa PAO1 transfected with lasB-gfp reporter assessed as decrease in GFP fluorescence expression at 0.625 to 10 uM incubated for 16 hrs by microplate reader assay; conditions: dose 0.625-10 µM

## NC[C@H]1O[C@H](O[C@H]2[C@H](O)[C@@H](O[C@H]3O[C@H](CO)[C@@H](O)[C@H](N)[C@H]3O)[C@H](N)C[C@@H]2N)[C@H](N)C[C@@H]1O [TOBRAMYCIN]
[1]
  survival at 2.5 µg/mL: 46.7%
[2]
  survival at 2.5 µg/mL: 18.1%

## Cc1cc(=O)c(O)c(CNCc2cn(-c3ccc(Oc4ccccc4)cc3)nn2)n1C
[3]
  Activity: Non-Toxic
[4]
  Activity: 50.9%
[5]
  Activity: ~50%
[6]
  inhibition: 26.7%
[7]
  Activity: Active
[8]
  Activity: Dose-Dependent Effect
[9]
  survival at 0.125 µg/mL: 13.1%
[10]
  survival at 50 µM: 82.3%
[11]
  inhibition: inactive
[12]
  Activity: Dose-Dependent Effect
[13]
  Activity: Active
[14]
  inhibition: 30%
[15]
  Activity: Active
[16]
  inhibition: 69.9%
[17]
  Activity: 22.4
[18]
  Activity: Active
[19]
  Activity: 41.1%
[20]
  Activity: inactive
[21]
  Activity: Active
[22]
  IC50: 3700 nM
[23]
  Activity: Active
[24]
  survival at 10 µM: 35.7%
[25]
  inhibition: inactive
[26]
  Activity: 32.2%
[27]
  Activity: inactive
[28]
  survival at 10 µM: 46.7%
[29]
  Activity: Active
[30]
  Activity: Toxic
[31]
  inhibition: inactive
[32]
  Survival: 36 h
[33]
  Activity: Dose-Dependent Effect
[34]
  inhibition: inactive
[35]
  IC50: 2700 nM
[36]
  Kd: 1100 nM
[37]
  survival at 50 µM: 87.1%
[38]
  Activity: Active
[39]
  Survival: 30 h
[40]
  Activity: Non-Toxic
[41]
  Activity: Dose-Dependent Effect
[42]
  inhibition: inactive
[43]
  inhibition: Active

— ChEMBL document CHEMBL5344424, “3-Hydroxypyridin-4(1H)-one Derivatives as pqs Quorum Sensing Inhibitors Attenuate Virulence and Reduce Antibiotic Resistance in Pseudomonas aeruginosa” (J Med Chem, 2023)
